≈ marks a conversion by molar mass, not a printed value.
Experiments:
[1] = tested on: S. aureus (ATCC 29213); assay: Minimal inhibitory concentration (MIC) assay, microbroth dilution (CLSI M100-S22); type: cell-based; conditions: Staphylococcus aureus, ATCC29213; no esterase added; 10% DMSO; 16 hours at 37° C.; first well showing ≥90% reduction in growth; read-out: MIC against S. aureus
[2] = tested on: S. aureus (ATCC 29213); assay: Time-kill assay (bactericidal activity); type: cell-based
Description: This inoculum preparation was used for all experiments. Time-kill assay: A time-kill assay was performed to monitor the bactericidal activity of propionic acid (PA). […] Assays were performed in 100 μl volumes in 96-well plates and incubated at 37° C. in a sealed bag to prevent evaporation. […] Bacterial growth was determined by counting CFUs. […] The assay was setup and evaluated as described above.

[3] = tested on: S. aureus; conditions: Shu et al. 2013; Wang et al. 2014; cited from earlier work

With `CCC(=O)O` [PA, propionic acid] the MIC [1] was 15 mM (≈ 1110 µg/mL), the “time after which bactericidal against S. aureus” value ([2]; 4× the MIC (MIC 15 mM), sampled at 0, 1, 7, 24 hours, FIG. 2) was 7 h and the “time after which S. aureus is completely killed” value ([2]; 4× the determined MIC, 0.2 mg/ml porcine liver esterase, sampled at 0, 1, 5, 24 hours, FIG. 4) was 5 h. For the same molecule, the “growth of S. aureus (literature)” value [3] was “inhibit growth of S. aureus”.

Reference: patent US11364214B2, “Compositions and methods for treating eczema” (Dermala Inc., priority 2016, dated 2022)
